In PMC4413193, “3-[4-(1H-Indol-3-yl)-1,3-thiazol-2-yl]-1H-pyrrolo[2,3-b]pyridines, Nortopsentin Analogues with Antiproliferative Activity” (Marine Drugs, 2015):
“Also recorded” adds a separate entry of the source.

Tests used:
Format in all cases: cell-based
[1] = test system: MOLT-4; experiment: NCI-60 in vitro tumor cell growth inhibition, MOLT-4 (leukemia); conditions: Homo sapiens, five concentration levels 10^−4–10^−8 M
Protocol: (§1) All the synthesized thiazoles 3a–k were evaluated by the National Cancer Institute (Bethesda MD) for cytotoxicity against the NCI-60 cell line panel using standard protocols. Initially, the selected derivatives 3c,d,g,h,j,k were tested at a single dose (10^−5 M) on the full panel of approximately 60 human tumor cell lines derived from 9 human cancer cell types, that have been grouped in disease sub-panels including leukemia, non-small-cell lung, colon, central nervous system (CNS), melanoma, ovarian, renal, prostate and breast cancers (data not shown). Compounds 3d and 3k were further selected for full evaluation at five concentration levels (10^−4–10^−8 M).
(§2) The antitumor activity of compounds 3d and 3k was given by three parameters for each cell line: GI50 (the molar concentration of the compound that inhibits 50% net cell growth), TGI (the molar concentration of the compound leading to total inhibition of net cell growth), and LC50 (the molar concentration of the compound that induces 50% net cell death). The average values of mean graph midpoint (MG_MID) were calculated for each of these parameters.

[2] = test system: NCI-H322M; experiment: NCI-60 in vitro tumor cell growth inhibition, NCI-H322M (non-small cell lung cancer); conditions: Homo sapiens, five concentration levels
Protocol: as §1, §2

[3] = test system: NCI-H460; experiment: NCI-60 in vitro tumor cell growth inhibition, NCI-H460 (non-small cell lung cancer); conditions: Homo sapiens, five concentration levels
Protocol: as §1, §2

[4] = test system: HCT-116; experiment: NCI-60 in vitro tumor cell growth inhibition, HCT-116 (colon cancer); conditions: Homo sapiens, five concentration levels
Protocol: as §1, §2

[5] = test system: HT29; experiment: NCI-60 in vitro tumor cell growth inhibition, HT29 (colon cancer); conditions: Homo sapiens, HT-29, five concentration levels
Protocol: as §1, §2

[6] = test system: KM12; experiment: NCI-60 in vitro tumor cell growth inhibition, KM12 (colon cancer); conditions: Homo sapiens, five concentration levels
Protocol: as §1, §2

[7] = test system: SW-620; experiment: NCI-60 in vitro tumor cell growth inhibition, SW-620 (colon cancer); conditions: Homo sapiens, five concentration levels
Protocol: as §1, §2

[8] = test system: SF-295; experiment: NCI-60 in vitro tumor cell growth inhibition, SF-295 (CNS cancer); conditions: Homo sapiens, five concentration levels
Protocol: as §1, §2

[9] = test system: UACC-257; experiment: NCI-60 in vitro tumor cell growth inhibition, UACC-257 (melanoma); conditions: Homo sapiens, five concentration levels
Protocol: as §1, §2

[10] = test system: IGROV1; experiment: NCI-60 in vitro tumor cell growth inhibition, IGROV1 (ovarian cancer); conditions: Homo sapiens, IGROV-1, five concentration levels
Protocol: as §1, §2

[11] = test system: NCI/ADR-RES; experiment: NCI-60 in vitro tumor cell growth inhibition, NCI/ADR-RES (ovarian cancer); conditions: Homo sapiens, five concentration levels
Protocol: as §1, §2

[12] = test system: TK-10; experiment: NCI-60 in vitro tumor cell growth inhibition, TK-10 (renal cancer); conditions: Homo sapiens, five concentration levels
Protocol: as §1, §2

[13] = test system: PC-3; experiment: NCI-60 in vitro tumor cell growth inhibition, PC-3 (prostate cancer); conditions: Homo sapiens, five concentration levels
Protocol: as §1, §2

[14] = test system: leukemia cancer subpanel cell lines; experiment: NCI-60 screen, leukemia subpanel summary; conditions: Homo sapiens; range over the leukemia subpanel; read-out: GI50 of all the leukemia subpanel cell lines (range)
Protocol: as §1, §2

[15] = test system: normal immortalized human liver cells (Chang); experiment: MTT viability assay, Chang liver cells; conditions: identical conditions to HepG2 (72 h, 0.1–10 μM)
Protocol: Cell growth inhibitory activity of compounds 3d and 3k was also investigated on human HepG2 hepatocarcinoma cells, a cell line not included in the NCI panel and of interest in the drug discovery because provided with a very active microsomal system for detoxification of xenobiotics. Monolayer cultures treated for 72 h with 0.1–10 μM concentrations of the compounds were examined by 3-(4,5-dimethylthiazol-2-yl)-2,5-diphenyltetrazolium bromide (MTT) assay for cell growth. […] Human cell lines of hepatoma HepG2 and Chang liver were purchased from American Type Culture Collection, Rockville, MD, USA. Cells were grown in RPMI supplemented with 2 mM L-glutamine, 10% FBS, 100 U/mL penicillin, 100 μg/mL streptomycin and 5 μg/mL gentamicin. HepG2 culture medium also contained 1.0 mM sodium pyruvate. Cells were maintained in log phase by seeding twice a week at a density of 3 × 10^8 cells/L in humidified 5% CO2 atmosphere, at 37 °C. In all experiments, cells were made quiescent through overnight incubation before the treatment with the compounds or vehicle alone (control cells). No differences were found between cells treated with DMSO 0.1% and untreated cells in terms of cell number and viability. […] Briefly, HepG2 and Chang cells were plated at 5 × 10^4 cells/well in 96-well plates containing 200 μL RPMI. […] The absorbance at 540 nm was measured in a microplate reader (Bio-RAD, Hercules, CA, USA). […]

Compound | GI50 [1] | GI50 [2] | GI50 [3] | GI50 [4] | GI50 [5] | GI50 [6] | GI50 [7] | GI50 [8] | GI50 [9] | GI50 [10] | GI50 [11] | GI50 [12] | GI50 [13] | GI50 [14] | viability of normal immortalized human liver cells (Chang) [15]
Cn1cc(-c2csc(-c3cn(C)c4ncccc34)n2)c2ccccc21 [Compound 3d, 1-Methyl-3-[4-(1-methyl-1H-indol-3-yl)-1,3-thiazol-2-yl]-1H-pyrrolo[2,3-b]pyridine] | 670 nM | 760 nM | 300 nM | 370 nM | 250 nM | 210 nM | 220 nM | 240 nM | 13 µM | 1330 nM | 90 nM | 600 nM | 460 nM | 60 to 670 nM | did not affect normal immortalized human liver cells (Chang); also recorded: did not substantially impaired viability
Cn1cc(-c2nc(-c3c[nH]c4ccccc34)cs2)c2cccnc21 [Compound 3k, 3-[4-(1H-Indol-3-yl)-1,3-thiazol-2-yl]-1-methyl-1H-pyrrolo[2,3-b]pyridine] | 660 nM |  | 370 nM | 390 nM | 190 nM | 400 nM | 300 nM | 310 nM | 14.2 µM | 1180 nM | 150 nM | 990 nM | 560 nM | 120 to 660 nM | did not affect normal immortalized human liver cells (Chang); also recorded: did not substantially impaired viability
